# Measurements reported in patent publication US20100267561A1, “HERBICIDAL PYRIDAZINONE DERIVATIVES” (priority 2007, published 2010).
# Like-named read-outs stand apart in the source and are kept apart here.
# How the values were obtained:
# Assay type in all cases: in vivo
# [1] = test system: wheat (Triticum aestivum); assay: Test A pre-/postemergence plant response; conditions: Triticum aestivum, 240 h, read-out: Plant response rating, Wheat; for plant injury at 31 g/ha: 31 g ai/ha; for plant injury at 125 g/ha: 125 g ai/ha
# Method in brief: (§1)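 Soil: loam blended with sand. Formulation: non-phytotoxic solvent mixture plus surfactant, applied as preemergence directed soil spray and as postemergence spray. Scoring: visual, 0 no effect to 100 complete control, roughly 10 days post-treatment in greenhouse.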
# [2] = test system: giant foxtail (Setaria faberi); assay: Test A pre-/postemergence plant response; conditions: Setaria faberi, 240 h, read-out: Plant response rating, Foxtail, Giant; for pest or weed control at 31 g/ha: 31 g ai/ha; for pest or weed control at 125 g/ha: 125 g ai/ha
# Method in brief: as §1
# [3] = test system: large crabgrass (Digitaria sanguinalis); assay: Test A pre-/postemergence plant response; conditions: Digitaria sanguinalis, 240 h, read-out: Plant response rating, Crabgrass, Large; for pest or weed control at 31 g/ha: 31 g ai/ha; for pest or weed control at 125 g/ha: 125 g ai/ha
# Method in brief: as §1
# corn (Zea mays) = assay: Test A pre-/postemergence plant response; conditions: Zea mays, 240 h; for Corn plant response rating (crop injury, 0 = no effect, 100 = complete kill) at 31 g/ha: 31 g ai/ha; for Corn plant response rating (crop injury, 0 = no effect, 100 = complete kill) at 125 g/ha: 125 g ai/ha
# Method in brief: as §1
# [4] = test system: barnyardgrass (Echinochloa crus-galli); assay: Test A pre-/postemergence plant response; conditions: Echinochloa crus-galli, 240 h, read-out: Plant response rating, Barnyardgrass; for pest or weed control at 31 g/ha: 31 g ai/ha; for pest or weed control at 125 g/ha: 125 g ai/ha
# Method in brief: as §1
# [5] = test system: pigweed (Amaranthus retroflexus); assay: Test A pre-/postemergence plant response; conditions: Amaranthus retroflexus, 240 h, read-out: Plant response rating, Pigweed; for pest or weed control at 31 g/ha: 31 g ai/ha; for pest or weed control at 125 g/ha: 125 g ai/ha
# Method in brief: as §1
# [6] = test system: lambsquarters (Chenopodium album); assay: Test B pre-/postemergence plant response; conditions: for pest or weed control at 31 g/ha / pest or weed control at 62 g/ha: Chenopodium album, read-out: Plant response rating, Lambsquarters; for pest or weed control at 31 g/ha: 31 g ai/ha; for pest or weed control at 62 g/ha: 62 g ai/ha, 100 complete control
# Source text: (§2) Seeds of plant species selected from blackgrass (Alopecurus myosuroides), downy bromegrass (Bromus tectorum), green foxtail (Setaria viridis), Italian ryegrass (Lolium multiflorum), wheat (Triticum aestivum), wild oat (Avena fatua), catchweed bedstraw (Galium aparine), bermudagrass (Cynodon dactylon), surinam grass (Brachiaria decumbens), cocklebur (Xanthium strumarium), corn (Zea mays), large crabgrass (Digitaria sanguinalis), woolly cupgrass (Eriochloa villosa), giant foxtail (Setaria faberii), goosegrass (Eleusine indica), johnsongrass (Sorghum halepense), kochia (Kochia scoparia), lambsquarters (Chenopodium album), morningglory (Ipomoea coccinea), eastern black (E.B.) nightshade (Solanum ptycanthum), yellow nutsedge (Cyperus esculentus), pigweed (Amaranthus retroflexus), common ragweed (Ambrosia elation), Russian thistle (Salsola iberica), soybean (Glycine max), common (oilseed) sunflower (Helianthus annuus), and velvetleaf (Abutilon theophrasti) were planted and treated preemergence with test chemicals formulated in a non-phytotoxic solvent mixture which included a surfactant.
# (§3) At the same time, plants selected from these crop and weed species and also winter barley (Hordeum vulgare), canarygrass (Phalaris minor), chickweed (Stellaria media) and windgrass (Apera spica-venti) were treated with postemergence applications of some of the test chemicals formulated in the same manner. Plants ranged in height from 2 to 18 cm (1- to 4-leaf stage) for postemergence treatments.
# (§4) Plant species in the flooded paddy test consisted of rice (Oryza sativa), umbrella sedge (Cyperus difformis), ducksalad (Heteranthera limosa) and barnyardgrass (Echinochloa crus-galli) grown to the 2-leaf stage for testing. At time of treatment, test pots were flooded to 3 cm above the soil surface, treated by application of test compounds directly to the paddy water, and then maintained at that water depth for the duration of the test. Treated plants and controls were maintained in a greenhouse for 13 to 15 days, after which time all species were compared to controls and visually evaluated. Plant response ratings, summarized in Table B, are based on a scale of 0 to 100 where 0 is no effect and 100 is complete control. A dash (-) response means no test result.
# [7] = test system: blackgrass (Alopecurus myosuroides); assay: Test B pre-/postemergence plant response; conditions: for pest or weed control at 31 g/ha: 31 g ai/ha; for pest or weed control at 62 g/ha: 62 g ai/ha, 100 complete control
# Source text: as §2, §3, §4
# [8] = test system: morningglory (Ipomoea coccinea); assay: Test B pre-/postemergence plant response; conditions: for pest or weed control at 31 g/ha / pest or weed control at 62 g/ha: Ipomoea, read-out: Plant response rating, Morningglory; for pest or weed control at 31 g/ha: 31 g ai/ha; for pest or weed control at 62 g/ha: 62 g ai/ha, 100 complete control
# Source text: as §2, §3, §4
# [9] = post-emergence, Postemergence, 0 to 100 scale (0 no effect, 100 complete control)
# [10] = post-emergence, Postemergence, 0 to 100 scale, 0 no effect, 100 complete control
# [11] = pre-emergence, Preemergence, 0 to 100 scale, 0 is no effect, 100 is complete control
# [12] = pre-emergence, Preemergence, 0 to 100 scale (0 no effect, 100 complete control)
# [13] = 8 g ai/ha, postemergence, 0-100 scale
# [14] = 16 g ai/ha, postemergence, 0-100 scale
# [15] = post-emergence, Postemergence, scale 0 to 100
# [16] = post-emergence, Postemergence, scale 0 to 100, 0 no effect
# [17] = pre-emergence, Preemergence, scale 0 to 100 (0 no effect, 100 complete control)
# [18] = pre-emergence, Preemergence, 0 to 100 scale, 0 no effect
# [19] = Preemergence, 8 g ai/ha, scale 0 to 100 (0 no effect, 100 complete control)
# [20] = Preemergence, 16 g ai/ha, scale 0 to 100
compound,measurement,setting,value
"Cc1nn(C)c(=O)c(-c2nc(-c3ccc(Cl)cc3)sc2C)c1O [Compound 79, 4-[2-(4-chlorophenyl)-5-methyl-4-thiazolyl]-5-hydroxy-2,6-dimethyl-3(2H)-pyridazinone]",plant injury at 31 g/ha,[1]; [9],0%
same,plant injury at 125 g/ha,[1]; [10],50%
same,plant injury at 31 g/ha,[1]; [11],0%
same,plant injury at 125 g/ha,[1]; [12],60%
same,pest or weed control at 31 g/ha,[2]; [9],10%
same,pest or weed control at 125 g/ha,[2]; [10],70%
same,pest or weed control at 31 g/ha,[2]; [11],10%
same,pest or weed control at 125 g/ha,[2]; [12],100%
same,pest or weed control at 31 g/ha,[3]; [9],30%
same,pest or weed control at 125 g/ha,[3]; [10],50%
same,pest or weed control at 31 g/ha,[3]; [11],10%
same,pest or weed control at 125 g/ha,[3]; [12],100%
same,"Corn plant response rating (crop injury, 0 = no effect, 100 = complete kill) at 31 g/ha",corn (Zea mays); [9],0%
same,"Corn plant response rating (crop injury, 0 = no effect, 100 = complete kill) at 125 g/ha",corn (Zea mays); [10],30%
same,"Corn plant response rating (crop injury, 0 = no effect, 100 = complete kill) at 31 g/ha",corn (Zea mays); [11],0%
same,"Corn plant response rating (crop injury, 0 = no effect, 100 = complete kill) at 125 g/ha",corn (Zea mays); [12],20%
same,pest or weed control at 31 g/ha,[4]; [9],0%
same,pest or weed control at 125 g/ha,[4]; [10],50%
same,pest or weed control at 31 g/ha,[4]; [11],0%
same,pest or weed control at 125 g/ha,[4]; [12],100%
same,pest or weed control at 31 g/ha,[5]; [9],0%
same,pest or weed control at 125 g/ha,[5]; [10],0%
same,pest or weed control at 31 g/ha,[5]; [11],0%
same,pest or weed control at 125 g/ha,[5]; [12],0%
same,Lambsquarters plant response rating,[6]; [13],0
same,Lambsquarters plant response rating,[6]; [14],0
same,pest or weed control at 31 g/ha,[6]; [15],0%
same,pest or weed control at 62 g/ha,[6]; [16],0%
same,pest or weed control at 31 g/ha,[6]; [17],20%
same,pest or weed control at 62 g/ha,[6]; [18],100%
same,Lambsquarters plant response rating,[6]; [19],0
same,Lambsquarters plant response rating,[6]; [20],0
same,Blackgrass plant response rating,[7]; [13],50
same,pest or weed control at 16 g/ha,"[7]; Alopecurus myosuroides, post-emergence, Postemergence, 16 g ai/ha, scale 0 to 100, read-out: Plant response rating, Blackgrass",50%
same,pest or weed control at 31 g/ha,"[7]; Alopecurus myosuroides, post-emergence, Postemergence, scale 0 to 100, read-out: Plant response rating, Blackgrass",90%
same,pest or weed control at 62 g/ha,"[7]; Alopecurus myosuroides, post-emergence, Postemergence, scale 0 to 100, 0 no effect, read-out: Plant response rating, Blackgrass",98%
same,pest or weed control at 31 g/ha,"[7]; Alopecurus myosuroides, pre-emergence, Preemergence, scale 0 to 100 (0 no effect, 100 complete control), read-out: Plant response rating, Blackgrass",98%
same,pest or weed control at 62 g/ha,"[7]; Alopecurus myosuroides, pre-emergence, Preemergence, 0 to 100 scale, 0 no effect, read-out: Plant response rating, Blackgrass",100%
same,Blackgrass plant response rating,[7]; [19],85
same,Blackgrass plant response rating,[7]; [20],85
same,Morningglory plant response rating,[8]; [13],0
same,Morningglory plant response rating,[8]; [14],0
same,pest or weed control at 31 g/ha,[8]; [15],0%
same,pest or weed control at 62 g/ha,[8]; [16],0%
same,pest or weed control at 31 g/ha,[8]; [17],0%
same,pest or weed control at 62 g/ha,[8]; [18],0%
same,Morningglory plant response rating,[8]; [19],0
same,Morningglory plant response rating,[8]; [20],0
